Our source for the IC50 values is patent US20260297081A1, “COMPOUNDS AND METHODS OF TREATING CANCERS” (Cullgen Inc., priority 2023, published 2026).

One assay concerns MCF7 cells. As to the kind of experiment: Anti-proliferation (viability) of MCF7 cells (Table 7, FIG. 2B). The settings on record: Homo sapiens, MCF7, MCF7 cells, 3-6 days, 10-point serial dilution; read-out: GI IC50 in MCF-7. The format is cell-based.
The test system of another assay is Calu-1 cells. As to the kind of experiment: Anti-proliferation (viability) of NSCLC Calu-1 cells, 3 days (Table 7, FIG. 2B). The settings on record: Homo sapiens, 72 h; Calu-1 cells, 3 days, 10-point serial dilution; read-out: GI IC50 in Calu-1. The format is cell-based. Summed up: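 Viability after a 10-point dilution series of heterobifunctional compounds, with exposure of 6 days for ER+ breast T47D cells and 3 days for NSCLC Calu-1 cells.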

Usually IC50 stands for the concentration needed to halve the response being measured. As to `CC(=O)c1c(C)c2cnc(Nc3ccc(N4CCN(CC(=O)NC5CC(Nc6nc(NC(C)C)ccc6C(=O)Nc6cn(C)c(C7CC7)n6)C5)CC4)cn3)nc2n(C2CCCC2)c1=O` (stereo not drawn) [CPD-288, 2-((3-(2-(4-(6-((6-acetyl-8-cyclopentyl-5-methyl-7-oxo-7,8-dihydropyrido[2,3-d]pyrimidin-2-yl)amino)pyridin-3-yl)piperazin-1-yl)acetamido)cyclobutyl)amino)-N-(2-cyclopropyl-1-methyl-1H-imidazol-4-yl)-6-(isopropylamino)nicotinamide], the IC50 with MCF7 cells is above 100 nM; in the assay on Calu-1 cells, at least 50 nM.

`CC(=O)c1c(C)c2cnc(Nc3ccc(N4CCN(C(=O)NC5CC(Nc6nc(NC(C)C)ccc6C(=O)Nc6cn(C)c(C7CC7)n6)C5)CC4)cn3)nc2n(C2CCCC2)c1=O` (stereo not drawn) [CPD-289, 4-(6-((6-acetyl-8-cyclopentyl-5-methyl-7-oxo-7,8-dihydropyrido[2,3-d]pyrimidin-2-yl)amino)pyridin-3-yl)-N-(3-((3-((2-cyclopropyl-1-methyl-1H-imidazol-4-yl)carbamoyl)-6-(isopropylamino)pyridin-2-yl)amino)cyclobutyl)piperazine-1-carboxamide]: the IC50 with MCF7 cells is above 100 nM; with Calu-1 cells, at least 50 nM.

With `CC(=O)c1c(C)c2cnc(Nc3ccc(N4CC5(CN(CCC(=O)N6CCC(Nc7nc(NC(C)C)ccc7C(=O)Nc7ccc(N(C)C)nn7)CC6)C5)C4)cn3)nc2n(C2CCCC2)c1=O` [CPD-454, 2-((1-(3-(6-(6-((6-acetyl-8-cyclopentyl-5-methyl-7-oxo-7,8-dihydropyrido[2,3-d]pyrimidin-2-yl)amino)pyridin-3-yl)-2,6-diazaspiro[3.3]heptan-2-yl)propanoyl)piperidin-4-yl)amino)-N-(6-(dimethylamino)pyridazin-3-yl)-6-(isopropylamino)nicotinamide], the IC50 in the assay with MCF7 cells is above 100 nM; in the assay on Calu-1 cells it was 10 to 50 nM.

Regarding `CC(=O)c1c(C)c2cnc(Nc3ccc(N4CC5(CN(CCC(=O)N6CC7(CC(Nc8nc(NC(C)C)ccc8C(=O)Nc8ccc(N(C)C)nn8)C7)C6)C5)C4)cn3)nc2n(C2CCCC2)c1=O` [CPD-455, 2-((2-(3-(6-(6-((6-acetyl-8-cyclopentyl-5-methyl-7-oxo-7,8-dihydropyrido[2,3-d]pyrimidin-2-yl)amino)pyridin-3-yl)-2,6-diazaspiro[3.3]heptan-2-yl)propanoyl)-2-azaspiro[3.3]heptan-6-yl)amino)-N-(6-(dimethylamino)pyridazin-3-yl)-6-(isopropylamino)nicotinamide], the figures for the IC50 in the assay with MCF7 cells and in the assay on Calu-1 cells were below 50 nM and at most 10 nM, respectively.

In the case of `CC(=O)c1c(C)c2cnc(Nc3ccc(N4CCC5(CC4)CC5C(=O)NC4CC5(C4)CC(Nc4nc(NC(C)C)ccc4C(=O)Nc4cn(C)c(C6CC6)n4)C5)cn3)nc2n(C2CCCC2)c1=O` (stereo not drawn) [CPD-457, 6-(6-((6-acetyl-8-cyclopentyl-5-methyl-7-oxo-7,8-dihydropyrido[2,3-d]pyrimidin-2-yl)amino)pyridin-3-yl)-N-(6-((3-((2-cyclopropyl-1-methyl-1H-imidazol-4-yl)carbamoyl)-6-(isopropylamino)pyridin-2-yl)amino)spiro[3.3]heptan-2-yl)-6-azaspiro[2.5]octane-1-carboxamide], the IC50 was below 50 nM with MCF7 cells and at most 10 nM in the assay on Calu-1 cells.

In the case of `[2H]C([2H])([2H])Nc1ccc(C(=O)Nc2ccc(N(C)C)nn2)c(NC2CC3(C2)CN(C(=O)CCN2CCN(c4ccc(Nc5ncc6c(C)c(C(C)=O)c(=O)n(C7CCCC7)c6n5)nc4)CC2(C)C)C3)n1` [CPD-458, 2-((2-(3-(4-(6-((6-acetyl-8-cyclopentyl-5-methyl-7-oxo-7,8-dihydropyrido[2,3-d]pyrimidin-2-yl)amino)pyridin-3-yl)-2,2-dimethylpiperazin-1-yl)propanoyl)-2-azaspiro[3.3]heptan-6-yl)amino)-N-(6-(dimethylamino)pyridazin-3-yl)-6-((methyl-d3)amino)nicotinamide], the results for the IC50 in the assay with MCF7 cells and in the assay on Calu-1 cells were above 100 nM and at most 10 nM, respectively.

Consider `CC(=O)c1c(C)c2cnc(Nc3ccc(N4CCN(CCC(=O)N5CC6(CC(Nc7nc(NC(C)C)ccc7C(=O)Nc7ccc(N(C)C)nn7)C6)C5)C(C)(C)C4)cn3)nc2n(C2CCCC2)c1=O` [CPD-459, 2-((2-(3-(4-(6-((6-acetyl-8-cyclopentyl-5-methyl-7-oxo-7,8-dihydropyrido[2,3-d]pyrimidin-2-yl)amino)pyridin-3-yl)-2,2-dimethylpiperazin-1-yl)propanoyl)-2-azaspiro[3.3]heptan-6-yl)amino)-N-(6-(dimethylamino)pyridazin-3-yl)-6-(isopropylamino)nicotinamide], for which the IC50 in the assay with MCF7 cells was above 100 nM; with Calu-1 cells it was at most 10 nM.

In the case of `CC(=O)c1c(C)c2cnc(Nc3ccc(N4CCC(N5CCC(C(=O)NC6CC(Nc7nc(NC(C)C)ccc7C(=O)Nc7ccc(N(C)C)nn7)C6)C5)CC4)cn3)nc2n(C2CCCC2)c1=O` (stereo not drawn) [CPD-460, 2-((3-(1-(1-(6-((6-acetyl-8-cyclopentyl-5-methyl-7-oxo-7,8-dihydropyrido[2,3-d]pyrimidin-2-yl)amino)pyridin-3-yl)piperidin-4-yl)pyrrolidine-3-carboxamido)cyclobutyl)amino)-N-(6-(dimethylamino)pyridazin-3-yl)-6-(isopropylamino)nicotinamide], the IC50 in the assay on MCF7 cells is above 100 nM; with Calu-1 cells, at most 10 nM.

Take `CC(=O)c1c(C)c2cnc(Nc3ccc(N4CCC(N5CCC(C(=O)NCC6CC(Nc7nc(NC(C)C)ccc7C(=O)Nc7ccc(N(C)C)nn7)C6)C5)CC4)cn3)nc2n(C2CCCC2)c1=O` (stereo not drawn) [CPD-461, 2-((3-((1-(1-(6-((6-acetyl-8-cyclopentyl-5-methyl-7-oxo-7,8-dihydropyrido[2,3-d]pyrimidin-2-yl)amino)pyridin-3-yl)piperidin-4-yl)pyrrolidine-3-carboxamido)methyl)cyclobutyl)amino)-N-(6-(dimethylamino)pyridazin-3-yl)-6-(isopropylamino)nicotinamide]: the 50% inhibitory concentration (IC50) in the assay with MCF7 cells was 50 to 100 nM; in the assay on Calu-1 cells, at most 10 nM.

Consider `CC(=O)c1c(C)c2cnc(Nc3ccc(N4CCC(N5CCC(C(=O)NC6CCC(Nc7nc(NC(C)C)ccc7C(=O)Nc7ccc(N(C)C)nn7)CC6)C5)CC4)cn3)nc2n(C2CCCC2)c1=O` (stereo not drawn) [CPD-462, 2-((4-(1-(1-(6-((6-acetyl-8-cyclopentyl-5-menthyl-7-oxo-7,8-dihydropyrido[2,3-d]pyrimidin-2-yl)amino)pyridin-3-yl)piperidin-4-yl)pyrrolidine-3-carboxamido)cyclohexyl)amino)-N-(6-(dimethylamino)pyridazin-3-yl)-6-(isopropylamino)nicotinamide], for which the IC50 was above 100 nM in the assay on MCF7 cells and 10 to 50 nM in the assay with Calu-1 cells.

Regarding `[2H]C([2H])([2H])Nc1ccc(C(=O)Nc2ccc(N(C)C)nn2)c(NC2CCN(C(=O)CN(C)C3CCN(c4ccc(Nc5ncc6c(C)c(C(C)=O)c(=O)n(C7CCCC7)c6n5)nc4)CC3)CC2)n1` [CPD-463, 2-((1-(N-(1-(6-((6-acetyl-8-cyclopentyl-5-methyl-7-oxo-7,8-dihydropyrido[2,3-d]pyrimidin-2-yl)amino)pyridin-3-yl)piperidin-4-yl)-N-methylglycyl)piperidin-4-yl)amino)-N-(6-(dimethylamino)pyridazin-3-yl)-6-((methyl-d3)amino)nicotinamide], the 50% inhibitory concentration (IC50) with MCF7 cells was below 50 nM; in the assay with Calu-1 cells, at most 10 nM.

On to `[2H]C([2H])([2H])Nc1ccc(C(=O)Nc2ccc(N(C)C)nn2)c(NC2CC3(C2)CN(C(=O)CN(C)C2CCN(c4ccc(Nc5ncc6c(C)c(C(C)=O)c(=O)n(C7CCCC7)c6n5)nc4)CC2)C3)n1` [CPD-464, 2-((2-(N-(1-(6-((6-acetyl-8-cyclopentyl-5-methyl-7-oxo-7,8-dihydropyrido[2,3-d]pyrimidin-2-yl)amino)pyridin-3-yl)piperidin-4-yl)-N-methylglycyl)-2-azaspiro[3.3]heptan-6-yl)amino)-N-(6-(dimethylamino)pyridazin-3-yl)-6-((methyl-d3)amino)nicotinamide], for which the figures for the IC50 with MCF7 cells and with Calu-1 cells were below 50 nM and at most 10 nM, respectively.

For the molecule `CC(=O)c1c(C)c2cnc(Nc3ccc(N4CCC(N(C)CC(=O)N5CCC(Nc6nc(NC(C)C)ccc6C(=O)Nc6cc(C)n(C)n6)CC5)CC4)cn3)nc2n(C2CCCC2)c1=O` [CPD-465, 2-((1-(N-(1-(6-((6-acetyl-8-cyclopentyl-5-methyl-7-oxo-7,8-dihydropyrido[2,3-d]pyrimidin-2-yl)amino)pyridin-3-yl)piperidin-4-yl)-N-methylglycyl)piperidin-4-yl)amino)-N-(1,5-dimethyl-1H-pyrazol-3-yl)-6-(isopropylamino)nicotinamide], the IC50 in the assay on MCF7 cells is below 50 nM; in the assay on Calu-1 cells, at most 10 nM.

As to `CC(=O)c1c(C)c2cnc(Nc3ccc(N4CCC(N(C)CC(=O)N5CCC(Nc6nc(NC(C)C)ccc6C(=O)Nc6cn(C)c(C7CC7)n6)CC5)CC4)cn3)nc2n(C2CCCC2)c1=O` [CPD-466, 2-((1-(N-(1-(6-((6-acetyl-8-cyclopentyl-5-methyl-7-oxo-7,8-dihydropyrido[2,3-d]pyrimidin-2-yl)amino)pyridin-3-yl)piperidin-4-yl)-N-methylglycyl)piperidin-4-yl)amino)-N-(2-cyclopropyl-1-methyl-1H-imidazol-4-yl)-6-(isopropylamino)nicotinamide], the IC50 was 50 to 100 nM in the assay on MCF7 cells and at most 10 nM with Calu-1 cells.

As for `CC(=O)c1c(C)c2cnc(Nc3ccc(N4CC5(CN(CC(=O)NC6CC7(C6)CC(Nc6nc(NC(C)C)ccc6C(=O)Nc6ccc(N(C)C)nn6)C7)C5)C4)cn3)nc2n(C2CCCC2)c1=O` (stereo not drawn) [CPD-467, 2-((6-(2-(6-(6-((6-acetyl-8-cyclopentyl-5-methyl-7-oxo-7,8-dihydropyrido[2,3-d]pyrimidin-2-yl)amino)pyridin-3-yl)-2,6-diazaspiro[3.3]heptan-2-yl)acetamido)spiro[3.3]heptan-2-yl)amino)-N-(6-(dimethylamino)pyridazin-3-yl)-6-(isopropylamino)nicotinamide], the half-maximal inhibitory concentration (IC50) in the assay on MCF7 cells is above 100 nM; with Calu-1 cells, at most 10 nM.
